Data: US9815850B2, “Compounds, compositions and methods” (Denali Therapeutics Inc., priority 2016, dated 2017)
pIC50: −log10 of the molar value.

Target: GST-hRIPK1 (8-327) (Homo sapiens (Human), UniProt Q13546)
Assay: Fluorescent Polarization Binding (FP Binding) assay
Conditions: 10 nM GST-hRIPK1 (8-327), 5 nM fluorescent labeled ligand; read-out: FP IC50
Description: Fluorescent Polarization Binding (FP Binding) assay (Berger S. B. et al. […] Maki J. L. et al. […] Test Compounds were serially diluted in DMSO at 100 fold final concentrations in the assay (1% DMSO final). […] For negative control the enzyme addition was replaced by assay buffer only. After addition of 5 μL of fluorescent labeled ligand at twice the final concentrations in assay buffer, the plate was incubated at RT for 30 min.

Chain of GST-hRIPK1 (8-327) (Q13546 8-327): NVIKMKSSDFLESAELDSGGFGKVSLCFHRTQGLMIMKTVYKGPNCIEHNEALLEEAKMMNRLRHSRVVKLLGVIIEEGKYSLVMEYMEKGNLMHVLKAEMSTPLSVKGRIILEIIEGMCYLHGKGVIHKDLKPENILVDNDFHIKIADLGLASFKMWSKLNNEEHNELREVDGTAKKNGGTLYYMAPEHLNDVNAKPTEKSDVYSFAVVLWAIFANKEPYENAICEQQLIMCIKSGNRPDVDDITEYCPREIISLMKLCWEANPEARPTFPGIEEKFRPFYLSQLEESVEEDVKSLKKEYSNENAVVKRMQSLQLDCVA

Structure (SMILES) | pIC50
CN1C(=O)[C@H](NC(=O)c2cc(Cc3ccccc3)[nH]n2)[C@@H]2C[C@@H]2c2cccnc21 [Example 80B, 5-benzyl-N-((1aR,2R,8bS)-4-methyl-3-oxo-1,1a,2,3,4,8b-hexahydrocyclopropa[d]pyrido[2,3-b]azepin-2-yl)-1H-pyrazole-3-carboxamide] | < 5.52
CN1C(=O)[C@@H](NC(=O)c2cc(Cc3ccccc3)on2)[C@H]2C[C@H]2c2cccnc21 [Example 81A, 5-benzyl-N-((1aS,2S,8bR)-4-methyl-3-oxo-1,1a,2,3,4,8b-hexahydrocyclopropa[d]pyrido[2,3-b]azepin-2-yl)isoxazole-3-carboxamide] | 6.00 to 10.00
CN1C(=O)[C@H](NC(=O)c2cc(Cc3ccccc3)on2)[C@@H]2C[C@@H]2c2cccnc21 [Example 81B, 5-benzyl-N-((1aR,2R,8bS)-4-methyl-3-oxo-1,1a,2,3,4,8b-hexahydrocyclopropa[d]pyrido[2,3-b]azepin-2-yl)isoxazole-3-carboxamide] | < 5.52
CN1C(=O)[C@@H](NC(=O)c2nn(Cc3ccccc3)cc2F)[C@H]2C[C@H]2c2cccnc21 [Example 82A, 1-benzyl-4-fluoro-N-((1aS,2S,8bR)-4-methyl-3-oxo-1,1a,2,3,4,8b-hexahydrocyclopropa[d]pyrido[2,3-b]azepin-2-yl)-1H-pyrazole-3-carboxamide] | 6.00 to 10.00
CN1C(=O)[C@H](NC(=O)c2nn(Cc3ccccc3)cc2F)[C@@H]2C[C@@H]2c2cccnc21 [Example 82B, 1-benzyl-4-fluoro-N-((1aR,2R,8bS)-4-methyl-3-oxo-1,1a,2,3,4,8b-hexahydrocyclopropa[d]pyrido[2,3-b]azepin-2-yl)-1H-pyrazole-3-carboxamide] | < 5.52
O=C(N[C@H]1C(=O)Nc2c(F)cc(F)cc2[C@H]2C[C@H]21)c1nnc(Cc2ccccc2)[nH]1 [Example 83B, 5-benzyl-N-((1aR,2R,8bS)-5,7-difluoro-3-oxo-1,1a,2,3,4,8b-hexahydrobenzo[b]cyclopropa[d]azepin-2-yl)-4H-1,2,4-triazole-3-carboxamide] | 5.00 to 6.00
CN1C(=O)[C@@H](NC(=O)c2nc3cccc(-c4ccccc4)c3s2)COc2ccccc21 [Example 84, (S)—N-(5-methyl-4-oxo-2,3,4,5-tetrahydrobenzo[b][1,4]oxazepin-3-yl)-7-phenylbenzo[d]thiazole-2-carboxamide] | 6.00 to 10.00
CN1C(=O)[C@@H](NC(=O)c2nnc(Cc3ccccc3)s2)COc2cccnc21 [Example 85, (S)-5-benzyl-N-(5-methyl-4-oxo-2,3,4,5-tetrahydropyrido[3,2-b][1,4]oxazepin-3-yl)-1,3,4-thiadiazole-2-carboxamide] | 6.00 to 10.00
CN1C(=O)[C@@H](NC(=O)c2ncc(Cc3ccccc3)s2)COc2cccnc21 [Example 86, (S)-5-benzyl-N-(5-methyl-4-oxo-2,3,4,5-tetrahydropyrido[3,2-b][1,4]oxazepin-3-yl)thiazole-2-carboxamide] | 6.00 to 10.00
CN1C(=O)[C@@H](NC(=O)c2cn(C3(c4ccccc4)CC3)nn2)COc2ccccc21 [Example 87, (S)—N-(5-methyl-4-oxo-2,3,4,5-tetrahydrobenzo[b][1,4]oxazepin-3-yl)-1-(1-phenylcyclopropyl)-1H-1,2,3-triazole-4-carboxamide] | 6.00 to 10.00
CN1C(=O)[C@@H](NC(=O)c2cnc(C3(c4ccccc4)CC3)[nH]2)COc2ccccc21 [Example 88, (S)—N-(5-methyl-4-oxo-2,3,4,5-tetrahydrobenzo[b][1,4]oxazepin-3-yl)-2-(1-phenylcyclopropyl)-1H-imidazole-5-carboxamide] | < 5.52
O=C(N[C@H]1C(=O)Nc2c(F)cc(F)cc2[C@H]2C[C@H]21)c1nnc(Cc2ccccc2)o1 [Example 89A, 5-benzyl-N-((1aR,2R,8bS)-5,7-difluoro-3-oxo-1,1a,2,3,4,8b-hexahydrobenzo[b]cyclopropa[d]azepin-2-yl)-1,3,4-oxadiazole-2-carboxamide] | 5.00 to 6.00
